From patent EP0819136B1, “MDP DERIVATIVES AND CONJUGATES HAVING HAEMATOPOIETIC FUNCTION STIMULATING ACTIVITY, AND COMPOSITIONS CONTAINING SAME” (VACSYN S.A., priority 1995, dated 1996) come the findings set out here.

A value given as a limit tells only on which side of the number the result lay.

The subject of assay [1] is CSH. Put plainly: CSH mobilisation in cyclophosphamide-treated mice after oral AZT, MDM or both (Example 6, figure 13). Format: in vivo, souris. The settings on record: cyclophosphamide 200 mg/kg s.c. day 0; oral MDM 25 mg/kg alone days 0, 1, 2, 3. On the procedure: La figure 13 représente une expérience similaire sur des souris normales qui ont préalablement reçu un traitement par une drogue cytotoxique : la cyclophosphamide.
L'effet du traitement ci-dessus pour compenser l'effet cytotoxique des chimiothérapies a été étudié en traitant les souris par le cyclophosphamide.
Les souris traitées par une simple injection sous-cutanée de cyclophosphamide (dose de 200 mg/kg) au jour 0 ont été ensuite divisées entre 4 groupes et ont reçu oralement, outre de l'eau physiologique (X), de l'AZT à 50 mg/kg (□), du MDM à 25 mg/kg (Δ) ou du mélange de ceux-ci (O). Le traitement oral a été effectué aux jours 0, 1, 2 et 3 et les numérations cellulaires ont été évaluées jusqu'à 14 jours après le commencement du traitement. Les résultats sont indiqués dans la figure 13. Là-encore, il apparaît évident qu'une très forte mobilisation a lieu surtout en présence du mélange d'AZT et de MDM.

Assay [2] relates to neutrophiles, leucocytes et myélocytes. The experiment in a line: Blood cell counts in mice given i.v. AZT 40 mg/kg plus Muradimétide i.v. or p.o. (Example 2). Format: in vivo, souris CDI mâles. On the procedure:
Le traitement par l'AZT seul induit classiquement une diminution du nombre des leucocytes et des neutrophiles circulants. Cette diminution est suivie par une reconstitution intervenant environ 4 à 7 jours après le début du traitement. Quand le Muradimétide a été administré par voie générale ou par la voie orale après un traitement par 40 mg/kg d'AZT, il n'y a pas de baisse du nombre de cellules et au contraire il y a une multiplication par au moins 1,5 du nombre de leucocytes et un triplement de celui des neutrophiles et cela dès après 4 jours. Les résultats sont représentés dans le tableau 2 ci-dessous.
Des souris CDI mâles (5 par groupe) ont été injectées avec de l'AZT à la dose de 40 mg par kg aux jours 0 à 3. Le Muradimétide est administré les mêmes jours à la dose de 10 mg par kg en intraveineux ou de 50 mg par kg per os. Les comptages cellulaires sont réalisés au jour 0 (avant le traitement), et aux jours 3 et 4. Tableau 2

Assay [3] deals with CSH. Put plainly: Circulating CSH at different stages of differentiation, colony cultures of blood mononuclear cells from treated mice (Example 7, figures 14a-d). Format: in vivo, souris (10 Balb/c par groupe). The settings on record: once daily for three consecutive days, MDM 25 mg/kg with or without AZT 50 mg/kg; blood collected 24 h after the last administration. The text has this:
Ces expériences ont pour objet la mise en évidence des différentes populations de CSH présentes dans le sang circulant.
Ont été recherchés les stades suivants depuis les plus primitifs décelables en culture et qui ne présentent aucun signe de différenciation comme les CFAC (Coblestone Area Forming Cells) et LTC-IC (Long Term Culture - Initiating Cells) jusqu'au GM-CFU (Granulocyte Macrophage - Colony Forming Units) en passant par des stades intermédiaires comme les HPP et LPP-CFU (respectivement High Proliferating Potential and Low Proliferating Potential CFU). Dans tous les cas, les conditions de cultures, en particulier leur durée, ont été choisies pour permettre une détection optimale des différentes populations considérées.
Ont été comparés pour cette étude l'effet de l'injection de saline (X-), d'AZT à 50 mg/kg, du MDM à 25 mg/kg et le mélange des deux sur le nombre de CSH cirulants. Les cellules mononucléaires après purification ont été cultivées pendant 5 jours pour dénombrer les GM-UFC (pour granulocytes - macrophages unités formant colonies), pendant 28 jours pour dénombrer les unités formant colonies à bas potentiel prolifératif (LPP) et les UFC à haut potentiel prolifératif (HPP). Les CAFC ont été dénombrés après 14 jours de culture. Les LTC-IC après 28 jours. Les résultats sont présentés sur les figures 14a, 14b, 14c et 14d respectivement. […]

Setting [4] is: AZT 40 mg/kg i.v. days 0-3 + Muradimétide i.v. 10mg/kg days 0-3, day 0 (before treatment).
[5] abbreviates: AZT 40 mg/kg i.v. days 0-3 + Muradimétide i.v. 10mg/kg days 0-3, day 3.
Setting [6] is: AZT 40 mg/kg i.v. days 0-3 + Muradimétide i.v. 10mg/kg days 0-3, day 4.
[7] abbreviates: AZT 40 mg/kg i.v. days 0-3 + Muradimétide p.o 50 mg/Kg days 0-3, day 0 (before treatment).
The mark [8] stands for this setting: AZT 40 mg/kg i.v. days 0-3 + Muradimétide p.o 50 mg/Kg days 0-3, day 3.
The mark [9] stands for this setting: AZT 40 mg/kg i.v. days 0-3 + Muradimétide p.o 50 mg/Kg days 0-3, day 4.
The mark [10] stands for this setting: Muradimétide by general or oral route after AZT 40 mg/kg, after 4 days.

Take `COC(=O)CC[C@@H](NC(=O)[C@H](C)NC(=O)[C@@H](C)O[C@H]1[C@H](O)[C@@H](CO)OC(O)[C@@H]1NC(C)=O)C(=O)OC` (stereo partly drawn) [Muradimétide, Nac-Mur-L-Ala-D-Glu-[OCH3]-OCH3]: the “numération des neutrophiles circulants” value in the assay on CSH [1] is on record as “effet similaire mais nettement moins marqué”. Moreover, in assay [2] (AZT 40 mg/kg i.v. + Muradimétide, whatever the route of administration), the “pourcentage de myélocytes ou de promyélocytes (result in words)” value is “augmentation spectaculaire”. In addition, the Leucocytes in assay [2] (setting [4]) is listed as 6.0 ± 3.4 x 10^6/ml; in assay [2] (setting [5]) it was 5.9 ± 2.9 x 10^6/ml; in assay [2] (setting [6]), 7.6 ± 1.6 x 10^6/ml; in assay [2] (setting [7]) it was 4.8 ± 0.4 x 10^6/ml; in assay [2] (setting [8]), 6.1 ± 1.4 x 10^6/ml; in assay [2] (setting [9]) it was 8.1 ± 2.9 x 10^6/ml. Moreover, the Myelocytes was 5 ± 7 x 10^4 /ml in assay [2] (setting [4]); 145 ± 83 x 10^4 /ml in assay [2] (setting [5]); 117 ± 46 x 10^4 /ml in assay [2] (setting [6]); 14 ± 13 x 10^4 /ml in assay [2] (setting [7]); 123 ± 55 x 10^4 /ml in assay [2] (setting [8]); 138 ± 59 x 10^4 /ml in assay [2] (setting [9]). Further, the Neutrophiles in assay [2] (setting [4]) is recorded as 2.0 ± 1.3 x 10^6 /ml; in assay [2] (setting [5]), 1.5 ± 0.8 x 10^6 /ml; in assay [2] (setting [6]), 4.6 ±1.5 x 10^6 /ml; in assay [2] (setting [7]), 1.4 ± 0.5 x 10^6 /ml; in assay [2] (setting [8]), 1.6 ± 0.5 x 10^6 /ml; in assay [2] (setting [9]) it was 4.3 ± 2.47 x 10^6 /ml. Moreover, the “multiplication du nombre de leucocytes” value in assay [2] (setting [10]) is on record as ≥ 1,5. Also, the “nombre de neutrophiles (fold change)” value in assay [2] (setting [10]) is “triplement”. For the same molecule, the “nombre de CSH circulants (GM-CFU, LPP-CFU, HPP-CFU)” value in the assay with CSH [3] was “apparaît clairement”.
